Results on 15 compounds are retold here after US4845195A, “Inhibitor of ribonucleotide reductase” (Merck & Co., Inc., priority 1987, dated 1989).

Ends that are not written are not given here. Peptide text beside a SMILES is read from it. * marks the point of attachment. Desaminotyrosyl = O=C(CCc1ccc(O)cc1)*

Assay [1] addresses T1, Herpes Simplex Virus Ribonucleotide Reductase (Human herpesvirus 2, UniProt P89462).
T1 construct: HSV RR was purified from Baby Hamster Kidney cells that were cultured with HSV2 Strain 186; made in house; host or cells: Baby Hamster Kidney cells infected with HSV2 Strain 186
Put plainly: Assay of Inhibition of HSV RR Activity (reduction of tritiated cytidine-diphosphate). In kind it is biochemical, HSV2 Strain 186. To be noted: 30 minutes at 37°C, dithiothreitol and MgCl2, enzyme not preincubated with inhibitor; read-out: IC50 (μM concentration of peptide producing 50% inhibition of enzyme activity). The protocol:
After infection, cells were harvested and lysed. Crude HSV RR was prepared as described by Huszar et al., J. Virol.
HSV RR activity was determined as the ability of the enzyme to catalyze the reduction of tritiated cytidine-diphosphate to deoxyribo-cytidinediphosphate in 30 minutes at 37°C. in the presence of dithiothreitol and MgCl2. Activity of oligopeptide inhibitors was determined by adding them to the reaction mix at the beginning of the incubation. Enzyme was not preincubated with inhibitor.
These were analyzed for amino acid composition and in some cases sequenced. Dry peptides were resuspended in 100 mM HEPES (pH 8.0) at about 2mM, relyophilized, and stored in aliquots at -80° C. Immediately prior to use they were rehydrated with distilled H2 O and centrifuged to remove any undissolved peptide.

Assay [2] has as its target ribonucleotide reductase enzyme of herpes simplex virus (Human herpesvirus 1, UniProt P08543). Particulars: Nature 321:439-441 and 441-443 (1986); cited from earlier work.

T1 sequence (P89462 whole entry): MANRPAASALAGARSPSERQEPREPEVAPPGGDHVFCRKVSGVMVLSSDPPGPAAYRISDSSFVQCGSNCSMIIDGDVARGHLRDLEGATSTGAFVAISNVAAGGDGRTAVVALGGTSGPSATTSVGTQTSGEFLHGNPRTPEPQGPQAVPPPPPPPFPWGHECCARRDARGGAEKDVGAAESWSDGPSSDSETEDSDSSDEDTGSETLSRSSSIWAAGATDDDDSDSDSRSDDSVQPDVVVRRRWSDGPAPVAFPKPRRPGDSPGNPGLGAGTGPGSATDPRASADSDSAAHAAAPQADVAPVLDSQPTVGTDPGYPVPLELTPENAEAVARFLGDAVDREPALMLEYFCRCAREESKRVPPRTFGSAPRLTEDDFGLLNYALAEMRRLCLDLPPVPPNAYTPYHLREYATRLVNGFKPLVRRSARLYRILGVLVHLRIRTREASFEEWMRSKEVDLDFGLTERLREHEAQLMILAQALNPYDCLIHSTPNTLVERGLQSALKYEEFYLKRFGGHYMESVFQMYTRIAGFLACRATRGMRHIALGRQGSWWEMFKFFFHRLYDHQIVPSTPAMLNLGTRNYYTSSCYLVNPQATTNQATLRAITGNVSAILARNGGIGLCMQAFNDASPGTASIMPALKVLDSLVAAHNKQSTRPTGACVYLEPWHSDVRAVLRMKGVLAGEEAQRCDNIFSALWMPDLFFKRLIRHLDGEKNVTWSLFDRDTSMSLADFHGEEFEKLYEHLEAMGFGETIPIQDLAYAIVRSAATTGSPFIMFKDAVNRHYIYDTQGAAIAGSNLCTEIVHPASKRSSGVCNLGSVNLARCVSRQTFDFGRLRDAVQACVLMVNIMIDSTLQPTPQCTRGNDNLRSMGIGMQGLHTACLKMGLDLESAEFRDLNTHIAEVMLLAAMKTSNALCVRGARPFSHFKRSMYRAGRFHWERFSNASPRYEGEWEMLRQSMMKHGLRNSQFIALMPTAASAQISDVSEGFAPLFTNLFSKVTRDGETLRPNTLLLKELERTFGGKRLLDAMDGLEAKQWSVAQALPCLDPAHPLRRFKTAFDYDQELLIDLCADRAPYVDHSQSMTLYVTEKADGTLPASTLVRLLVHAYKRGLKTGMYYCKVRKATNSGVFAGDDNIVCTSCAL
ribonucleotide reductase enzyme of herpes simplex virus, sequence (P08543 whole entry): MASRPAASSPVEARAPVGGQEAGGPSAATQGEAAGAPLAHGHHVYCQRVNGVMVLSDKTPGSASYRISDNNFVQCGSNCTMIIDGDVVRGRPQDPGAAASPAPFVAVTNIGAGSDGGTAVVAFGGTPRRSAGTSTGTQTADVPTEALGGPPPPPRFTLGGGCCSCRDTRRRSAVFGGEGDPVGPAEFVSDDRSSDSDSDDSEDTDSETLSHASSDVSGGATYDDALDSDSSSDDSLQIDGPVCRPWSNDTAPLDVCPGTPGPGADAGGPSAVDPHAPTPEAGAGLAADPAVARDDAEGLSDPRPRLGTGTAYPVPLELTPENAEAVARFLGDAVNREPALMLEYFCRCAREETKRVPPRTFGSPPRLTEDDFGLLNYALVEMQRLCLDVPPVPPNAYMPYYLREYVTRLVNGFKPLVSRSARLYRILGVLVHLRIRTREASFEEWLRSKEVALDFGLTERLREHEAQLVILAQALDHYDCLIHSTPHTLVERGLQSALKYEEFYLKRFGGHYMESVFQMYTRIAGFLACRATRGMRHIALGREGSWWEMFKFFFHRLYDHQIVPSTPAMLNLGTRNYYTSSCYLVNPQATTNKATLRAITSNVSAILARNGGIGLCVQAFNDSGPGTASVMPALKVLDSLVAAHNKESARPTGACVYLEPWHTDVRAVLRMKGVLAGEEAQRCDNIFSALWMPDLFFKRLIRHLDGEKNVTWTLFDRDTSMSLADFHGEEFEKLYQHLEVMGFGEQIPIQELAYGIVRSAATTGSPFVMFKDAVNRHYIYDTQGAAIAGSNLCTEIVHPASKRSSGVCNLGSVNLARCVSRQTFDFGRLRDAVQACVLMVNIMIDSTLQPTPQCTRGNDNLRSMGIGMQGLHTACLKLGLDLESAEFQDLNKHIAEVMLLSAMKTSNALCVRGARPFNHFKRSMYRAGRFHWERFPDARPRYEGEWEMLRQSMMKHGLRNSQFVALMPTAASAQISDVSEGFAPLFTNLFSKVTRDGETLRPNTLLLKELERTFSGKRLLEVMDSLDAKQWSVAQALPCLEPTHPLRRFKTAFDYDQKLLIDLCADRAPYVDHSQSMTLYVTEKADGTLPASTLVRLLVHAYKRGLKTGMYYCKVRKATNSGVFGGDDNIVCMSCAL

With STSYAGAVVNDL [STSYAGAVVNDL], the IC50 in assay [1] was found to be 17 µM.

Turning to Tyr GVly Ala Val Val Asn Asp Leu, the “inhibition of the activity of the enzyme in vitro” value in assay [2] is given as “inhibited”.

For Ac-AVVNDL [AcAVVNDL], in assay [1], the IC50 was 87 µM.

With TSYAGAVVNDL [TSYAGAVVNDL], the IC50 in assay [1] turned out to be 17 µM.

As to AVVNDL [AVVNDL], the IC50 in assay [1] is 51 µM.

For `CC(=O)N[C@@H](Cc1ccc(O)cc1)C(=O)N[C@@H](C)C(=O)NCC(=O)N[C@@H](C)C(=O)N[C@H](C(=O)N[C@H](C(=O)N[C@@H](CC(N)=O)C(=O)N[C@@H](CC(=O)O)C(=O)N[C@@H](CC(C)C)C(=O)O)C(C)C)C(C)C` [AcYAGAVVNDL], in assay [1], the IC50 came to 5 µM.

AGAVVNDL [AGAVVNDL]: in assay [1], the IC50 was 80 µM.

Consider FPLSLMSTDKHTNFFECRSTSYAGAVVNDL, for which the IC50 in assay [1] was found to be 8 µM.

With `CC(C)C[C@H](NC(=O)[C@H](CC(=O)O)NC(=O)[C@H](CC(N)=O)NC(=O)[C@@H](NC(=O)[C@@H](N)C(C)C)C(C)C)C(=O)O` [VVNDL, Val Val Asn Asp Leu], the IC50 in assay [1] turned out to be 250 µM.

As to Ac-GAVVNDL [AcGAVVNDL], the IC50 in assay [1] was found to be 75 µM.

As for `CC(C)C[C@H](NC(=O)[C@H](CC(=O)O)NC(=O)[C@H](CC(N)=O)NC(=O)[C@@H](NC(=O)[C@@H](NC(=O)[C@H](C)NC(=O)CNC(=O)[C@H](C)NC(=O)CCc1ccc(O)cc1)C(C)C)C(C)C)C(=O)O` [desNH2--YAGAVVNDL, desNH2-YAGAVVNDL] (Desaminotyrosyl-AGAVVNDL-OH), in assay [1], the IC50 turned out to be 20 µM.

Consider `CC(C)C[C@H](NC(=O)[C@H](CC(=O)O)NC(=O)[C@H](CC(N)=O)NC(=O)[C@@H](NC(=O)[C@@H](NC(=O)[C@H](C)NC(=O)CNC(=O)[C@H](C)NC(=O)[C@@H](N)Cc1ccc(O)cc1)C(C)C)C(C)C)C(=O)O` [YAGAVVNDL, Tyr Ala Gly Ala Val Val Asn Asp Leu, reference compound], for which the IC50 in assay [1] is 10 µM.

As for SYAGAVVNDL [SYAGAVVNDL], the IC50 in assay [1] was determined as 17 µM.

As for `CC(C)C[C@H](NC(=O)[C@H](CC(=O)O)NC(=O)[C@H](CC(N)=O)NC(=O)[C@@H](NC(=O)[C@@H](NC(=O)[C@H](C)NC(=O)CNC(=O)[C@H](C)NC(=O)[C@@H](N)Cc1ccc(O)cc1)C(C)C)C(C)C)C(N)=O` [YAGAVVNDL--NH2, YAGAVVNDL-NH2], the IC50 in assay [1] worked out at 75 µM.

For the compound GAVVNDL [GAVVNDL], the IC50 in assay [1] is 70 µM.
